Patent US20240115527A1, “CXCR1/CXCR2 INHIBITORS FOR USE IN TREATING MYELOFIBROSIS” (Icahn School of Medicine at Mount Sinai, priority 2020, published 2024)

Experiments:
Format in all cases: cell-based, human
MF CD34+ cells = assay: Clonal assays of MF CD34+ cells; JAK2V617F allele status of picked hematopoietic colonies
Method: Individual hematopoietic colonies were randomly picked from clonal assays of CD34^+ cells from 6 MF cases and the JAK2V617F allele status was determined.
IL-8 alone increased the absolute numbers of JAK2V617F+ colonies, and the addition of Ladarixin reduced the numbers of JAK2V617F positive colonies stimulated by IL-8 (Tables 1-3).

normal CD34+ cells = assay: Hematopoietic colony formation by normal CD34+ cells with IL-8; conditions: addition of ladarixin, FIG. 5B
[1] = tested on: co-cultures of MF MNC and stromal cells; assay: ELISA of IL-8 and VEGF in conditioned medium of co-cultures of MF MNC and splenic stromal cells
Description: FIGS. 6A, 6B, 6C, 6D, and 6E illustrate that a CXCR1/CXCR2 inhibitor reverses effects of IL-8 on micro-environmental cells. […] N splenic AC=normal splenic adherent cells. nBM MNC=non-adherent bone marrow mononuclear cells. MNC=mononuclear cells. […] FIGS. 6D and 6E illustrate that addition of CXCR1/CXCR2 inhibitor Ladx decreased the levels of IL-8 (FIG. 6D) and VEGF (FIG. 6E) in conditioned medium harvested from co-cultures of MF MNC and stromal cells.

[2] = MF4 CD34+ cells, ladarixin 10 μM + IL-8 20 ng
[3] = MF4 CD34+ cells, ladarixin 10 μM + IL-8 50 ng
[4] = MF4 CD34+ cells, ladarixin 10 μM + IL-8 100 ng
[5] = MF4 CD34+ cells, ladarixin 10 μM, no IL-8
[6] = MF4 CD34+ cells, ladarixin 20 μM + IL-8 20 ng
[7] = MF4 CD34+ cells, ladarixin 20 μM, no IL-8
[8] = MF5 CD34+ cells, ladarixin 10 μM + IL-8 10 ng
[9] = MF5 CD34+ cells, ladarixin 10 μM + IL-8 20 ng
[10] = MF5 CD34+ cells, ladarixin 10 μM + IL-8 50 ng
[11] = MF5 CD34+ cells, ladarixin 10 μM + IL-8 100 ng
[12] = MF5 CD34+ cells, ladarixin 10 μM, no IL-8
[13] = MF5 CD34+ cells, ladarixin 20 μM + IL-8 20 ng
[14] = MF5 CD34+ cells, ladarixin 20 μM, no IL-8
[15] = MF6 CD34+ cells, ladarixin 10 μM + IL-8 10 ng
[16] = MF6 CD34+ cells, ladarixin 10 μM + IL-8 20 ng
[17] = MF6 CD34+ cells, ladarixin 10 μM + IL-8 50 ng
[18] = MF6 CD34+ cells, ladarixin 10 μM + IL-8 100 ng
[19] = MF6 CD34+ cells, ladarixin 10 μM, no IL-8
[20] = MF6 CD34+ cells, ladarixin 20 μM + IL-8 20 ng
[21] = MF6 CD34+ cells, ladarixin 20 μM, no IL-8

C[C@@H](C(=O)NS(C)(=O)=O)c1ccc(OS(=O)(=O)C(F)(F)F)cc1 [Ladarixin, R(-)-2-[(4′-trifluoromethanesulfonyloxy)phenyl]-N-methanesulfonyl propionamide]
number of colonies, Wild (JAK2 wild type) (MF CD34+ cells; MF4 CD34+ cells, ladarixin 10 μM + IL-8 10 ng): 0
number of colonies, Heter (JAK2V617F heterozygous) (MF CD34+ cells; [2]): 113
number of colonies, Homo (JAK2V617F homozygous) (MF CD34+ cells; [2]): 0
number of colonies, Wild (JAK2 wild type) (MF CD34+ cells; [2]): 0
number of colonies, Heter (JAK2V617F heterozygous) (MF CD34+ cells; [3]): 137
number of colonies, Homo (JAK2V617F homozygous) (MF CD34+ cells; [3]): 0
number of colonies, Wild (JAK2 wild type) (MF CD34+ cells; [3]): 0
number of colonies, Heter (JAK2V617F heterozygous) (MF CD34+ cells; [4]): 112
number of colonies, Homo (JAK2V617F homozygous) (MF CD34+ cells; [4]): 7
number of colonies, Wild (JAK2 wild type) (MF CD34+ cells; [4]): 0
number of colonies, Heter (JAK2V617F heterozygous) (MF CD34+ cells; [5]): 163
number of colonies, Homo (JAK2V617F homozygous) (MF CD34+ cells; [5]): 23
number of colonies, Wild (JAK2 wild type) (MF CD34+ cells; [5]): 0
number of colonies, Heter (JAK2V617F heterozygous) (MF CD34+ cells; [6]): 134
number of colonies, Homo (JAK2V617F homozygous) (MF CD34+ cells; [6]): 0
number of colonies, Wild (JAK2 wild type) (MF CD34+ cells; [6]): 0
number of colonies, Heter (JAK2V617F heterozygous) (MF CD34+ cells; [7]): 142
number of colonies, Homo (JAK2V617F homozygous) (MF CD34+ cells; [7]): 0
number of colonies, Wild (JAK2 wild type) (MF CD34+ cells; [7]): 0
number of colonies, Heter (JAK2V617F heterozygous) (MF CD34+ cells; [8]): 0
number of colonies, Homo (JAK2V617F homozygous) (MF CD34+ cells; [8]): 0
number of colonies, Wild (JAK2 wild type) (MF CD34+ cells; [8]): 148
number of colonies, Heter (JAK2V617F heterozygous) (MF CD34+ cells; [9]): 0
number of colonies, Homo (JAK2V617F homozygous) (MF CD34+ cells; [9]): 0
number of colonies, Wild (JAK2 wild type) (MF CD34+ cells; [9]): 138
number of colonies, Heter (JAK2V617F heterozygous) (MF CD34+ cells; [10]): 0
number of colonies, Homo (JAK2V617F homozygous) (MF CD34+ cells; [10]): 0
number of colonies, Wild (JAK2 wild type) (MF CD34+ cells; [10]): 151
number of colonies, Heter (JAK2V617F heterozygous) (MF CD34+ cells; [11]): 0
number of colonies, Homo (JAK2V617F homozygous) (MF CD34+ cells; [11]): 0
number of colonies, Wild (JAK2 wild type) (MF CD34+ cells; [11]): 144
number of colonies, Heter (JAK2V617F heterozygous) (MF CD34+ cells; [12]): 0
number of colonies, Homo (JAK2V617F homozygous) (MF CD34+ cells; [12]): 0
number of colonies, Wild (JAK2 wild type) (MF CD34+ cells; [12]): 107
number of colonies, Heter (JAK2V617F heterozygous) (MF CD34+ cells; [13]): 0
number of colonies, Homo (JAK2V617F homozygous) (MF CD34+ cells; [13]): 0
number of colonies, Wild (JAK2 wild type) (MF CD34+ cells; [13]): 131
number of colonies, Heter (JAK2V617F heterozygous) (MF CD34+ cells; [14]): 0
number of colonies, Homo (JAK2V617F homozygous) (MF CD34+ cells; [14]): 0
number of colonies, Wild (JAK2 wild type) (MF CD34+ cells; [14]): 141
number of colonies, Heter (JAK2V617F heterozygous) (MF CD34+ cells; [15]): 0
number of colonies, Homo (JAK2V617F homozygous) (MF CD34+ cells; [15]): 0
number of colonies, Wild (JAK2 wild type) (MF CD34+ cells; [15]): 119
number of colonies, Heter (JAK2V617F heterozygous) (MF CD34+ cells; [16]): 0
number of colonies, Homo (JAK2V617F homozygous) (MF CD34+ cells; [16]): 0
number of colonies, Wild (JAK2 wild type) (MF CD34+ cells; [16]): 121
number of colonies, Heter (JAK2V617F heterozygous) (MF CD34+ cells; [17]): 0
number of colonies, Homo (JAK2V617F homozygous) (MF CD34+ cells; [17]): 0
number of colonies, Wild (JAK2 wild type) (MF CD34+ cells; [17]): 122
number of colonies, Heter (JAK2V617F heterozygous) (MF CD34+ cells; [18]): 0
number of colonies, Homo (JAK2V617F homozygous) (MF CD34+ cells; [18]): 0
number of colonies, Wild (JAK2 wild type) (MF CD34+ cells; [18]): 119
number of colonies, Heter (JAK2V617F heterozygous) (MF CD34+ cells; [19]): 0
number of colonies, Homo (JAK2V617F homozygous) (MF CD34+ cells; [19]): 0
number of colonies, Wild (JAK2 wild type) (MF CD34+ cells; [19]): 119
number of colonies, Heter (JAK2V617F heterozygous) (MF CD34+ cells; [20]): 0
number of colonies, Homo (JAK2V617F homozygous) (MF CD34+ cells; [20]): 0
number of colonies, Wild (JAK2 wild type) (MF CD34+ cells; [20]): 106
number of colonies, Heter (JAK2V617F heterozygous) (MF CD34+ cells; [21]): 0
number of colonies, Homo (JAK2V617F homozygous) (MF CD34+ cells; [21]): 0
number of colonies, Wild (JAK2 wild type) (MF CD34+ cells; [21]): 105
numbers of JAK2V617F positive colonies stimulated by IL-8 (MF CD34+ cells; addition of Ladarixin, 6 MF cases): reduced
hematopoietic colony formation by normal CD34+ cells (normal CD34+ cells): did not affect
IL-8 levels in co-cultures (conditioned medium) ([1]; FIG. 6D): decreased
VEGF levels in co-cultures (conditioned medium) ([1]; FIG. 6E): decreased
